Experiments:
[1] = cited from earlier work
OVCAR 3 Cancer cells = experiment: Nano formulations in animals with implanted tumor: side effects; settings: mouse, in vivo
Method: Animals—Immunodeficient, female athymic mice aged 5-6 weeks and weighing between 18 and 20 g were purchased from Taconic Biosciences (Albany, N.Y.). All animal studies were conducted at the animal facility of the Veteran Affairs Medical Center, Albany, N.Y. in accordance with and approved by institutional guidelines for humane animal treatment and according to the current guidelines. Mice were maintained under specific pathogen-free conditions and housed under controlled conditions of temperature (20-24° C.) and humidity (60-70%) and 12 h light/dark cycle with ad libitum access to water and food. Mice were allowed to acclimatize for 5 d prior to the start of study.
Treatment—OVCAR 3 Cancer cells (1×10^6) were implanted subcutaneously in right flank of each animal. In the first set of experiments, control, free Quercetin (3 mg/kg), NPS-quercetin(3 mg/kg), and FA-NPs-quercetin (3 mg/kg) were injected subcutaneously to the mice everyday (for 14 days). The control was PBS, after humane sacrifice of animals at 14 days, tumors were harvested and amount of QC was measured.

Q: With O=c1c(O)c(-c2ccc(O)c(O)c2)oc2cc(O)cc(O)c12 [Quercetin, quercetin] as the compound, how does the water solubility [1] read?
A: The water solubility was “not water soluble”.

Q: And the “adverse toxic effect on the health of tumor bearing mice” value (OVCAR 3 Cancer cells)?
A: The value was “does not have any adverse toxic effect”.

— US20220087946A1, “COMPOSITIONS, METHODS, SYSTEMS AND/OR KITS FOR PREVENTING AND/OR TREATING NEOPLASMS” (Research Cancer Institute of America, priority 2017, published 2022)
